From publication PMC3789174 (Cell Death & Disease, 2013)

Test system: PBMCs from CLL patients
Experiment: Peptide-induced cell death, PI staining and FACS
Type: cell-based, human
Conditions: relatively high concentrations; data not shown

## Nc1nc(F)nc2c1ncn2[C@@H]1O[C@H](CO)[C@@H](O)[C@@H]1O [fludarabine]
  cell killing effect on PBMCs isolated from CLL patients: only a weak cell killing effect
